From paper PMC9278120, “Epitope alteration by small molecules and applications in drug discovery” (Chemical Science, 2022)
Each block holds one molecule with its values, some of them ahead of it.

Assays:
[1] = target: T1, amyloid beta (Aβ1–40) (Homo sapiens, UniProt P05067); assay: FRET titration of ternary complex with 4G8 and PE-labelled secondary antibody; dot blot; fluorescence probe in competition; format: binding; set-up: gene APP; Aβ1–40 monomers (also oligomers and aggregates); with 4G8 antibody
[2] = target: T1, amyloid beta (Aβ1–40); assay: fluorescence competition with CRANAD-3; also antibody dot blot, MSD, Simoa and ThT aggregation assay; format: binding; set-up: gene APP; Aβ1–40 monomers
[3] = target: T1, amyloid beta (Aβ1–40); assay: concentration-dependent 4G8 dot blot (one-site binding fit); ANS fluorescence; FRET; MSD/Simoa; set-up: gene APP; Aβ1–40; fragment Aβ17–24 also tested by ANS; with 4G8 antibody

T1 sequence (P05067 672-711): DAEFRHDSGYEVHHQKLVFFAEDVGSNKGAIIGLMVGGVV

Molecule: CCN(CC)c1ccc(/C=C/C2=CC(/C=C/c3ccc(N(CC)CC)nc3)=[O+][B-](F)(F)O2)cn1 [CRANAD-3]
FRET titration of ternary complex with 4G8 and PE-labelled secondary antibody; d [1]: enhanced antibody recognition was due to the formation of the ternary complex of CRANAD-3, Aβs and 4G8 antibody

Ki [2]: 4.16 ± 1.04 nM
Molecule: Cc1ccc(NC(=O)Nc2cc(C(F)(F)F)ccc2F)cc1Nc1ccc2c(c1)NC(=O)/C2=C\c1ccc[nH]1 [GNF-5837]

EC50 [3]: 121 nM
Molecule: CRANAD-17
